Where two headings read alike, the source gives them in different places.
Tests used:
[1] = test system: PANC-1 (pancreatic cancer) cell line; assay: Cell growth inhibition experiment (SRB), PANC-1; type: cell-based; settings: Homo sapiens, PANC-1, 96 h, 96 hours incubation
Protocol: (§1) The cell lines below were used in order to confirm the efficacy of the compounds synthesized in Examples 1 to 60. Human PANC-1 (pancreatic cancer) and MDA-MB-231 (breast cancer) cell lines were obtained from the American Type Culture Collection (ATCC; Manassas, Va.); and HN31 (head and neck cancer) and UMRC2 (kidney cancer) cell lines were secured from the United States National Institutes of Health (Bethesda, Md.). The MDA-MB-231, UMRC2, HN31, and PANC-1 cell lines were cultured in Dulbecco modified Eagle medium (DMEM; Invitrogen, Carlsbad, Calif.) containing FBS (10%), HEPES (10 mM), penicillin (100 U/mL), and streptomycin (100 μg/mL). All cell lines were cultured in an incubator (37° C., 5% CO2).
(§2) The 4-(aryl)-N-(3-alkoxyfuro[2,3-b]pyrazin-2-yl)-piperazine-1-carboxamide derivative compounds synthesized according to Examples 1 to 60 of the present invention were treated with various human tissue-derived cancer cell lines cultured according to Experimental Example 1, and thus the inhibitory effect of the growth of human cancer cells was confirmed. The cell growth inhibition experiment was conducted using the sulforhodamine B (SRB) technique (Skehan et al., J. National Cancer Institute, 1990, 82: 1107-1112). Specifically, each cell line was seeded in a 96-well plate at a density of 2 to 3×10^3 cells/well, cultured overnight, and then treated with the 4-(aryl)-N-(3-alkoxyfuro[2,3-b]pyrazin-2-yl)-piperazine-1-carboxamide derivative compounds of the present invention. The experiment was repeated 3 times for each compound. Cells treated with each compound were additionally incubated for 96 hours, fixed with 10% trichloroacetic acid (TCA), and then left at 4° C. for 1 hour. The resultant was washed 3 times with distilled water. Thereafter, each cell was treated with 0.4% sulforhodamine B dissolved in 1% acetic acid, stained for 30 minutes, and then washed 4 times with 1% acetic acid. The resultant was dried in the air. After shaking the resultant in Tris solution (10 mM) for 5 minutes, the absorbance was measured at 530 nm using a Benchmark Plus Microplate reader (Bio-Rad Laboratories, Hercules, Calif.).
(§3) In order to convert the OD530 value to the number of viable cells per each well, the measured OD530 value was compared to the standard OD530-vs.-cell number curve of each cell line. The percent survival was calculated using the following formula: % survival=Nlive cells(test)/Nlive cells(control)×100

SK-OV-3 = assay: Cell growth inhibition experiment (SRB), SK-OV-3; type: cell-based, human; settings: 96 hours incubation, read-out: IC50 (μM) for cancer cell line SK-OV-3
Protocol: as §2, §3

[2] = test system: UMRC2 (kidney cancer) cell line; assay: Cell growth inhibition experiment (SRB), UMRC2; type: cell-based, human; settings: 96 hours incubation
Protocol: as §1, §2, §3

HEK293 = assay: Cell growth inhibition experiment (SRB), HEK293; type: cell-based, human; settings: 96 hours incubation, read-out: IC50 (μM) for cancer cell line HEK293
Protocol: as §2, §3

A549 = assay: Cell growth inhibition experiment (SRB), A549; type: cell-based; settings: Homo sapiens, A549, 96 h, 96 hours incubation, read-out: IC50 (μM) for cancer cell line A549
Protocol: as §2, §3

[3] = test system: MDA-MB-231 (breast cancer) cell line; assay: Cell growth inhibition experiment (SRB), MDA-MB-231; type: cell-based, human; settings: 96 hours incubation
Protocol: as §1, §2, §3

[4] = test system: HN31 (head and neck cancer) cell line; assay: Cell growth inhibition experiment (SRB), HN31; type: cell-based, human; settings: 96 hours incubation
Protocol: as §1, §2, §3

HT29 = assay: Cell growth inhibition experiment (SRB), HT29; type: cell-based, human; settings: 96 hours incubation, read-out: IC50 (μM) for cancer cell line HT29
Protocol: as §2, §3

HUVEC = assay: Cell growth inhibition experiment (SRB), HUVEC; type: cell-based, human; settings: 96 hours incubation, read-out: IC50 (μM) […]
Protocol: as §2, §3

IC50 [1] [µM] | IC50 (SK-OV-3; Homo sapiens, SK-OV-3, 96 h) [µM] | IC50 ([2]; Homo sapiens, UMRC2, 96 h) [µM] | IC50 (A549) [µM] | IC50 ([3]; Homo sapiens, MDA-MB-231, 96 h) [µM] | IC50 ([4]; Homo sapiens, 96 h) [µM] | IC50 (HT29; Homo sapiens, HT-29, 96 h) [µM] | IC50 (SK-OV-3) [µM] | IC50 [2] [µM] | IC50 [3] [µM] | IC50 [4] [µM] | IC50 (HT29) [µM] | SMILES | IC50 (HEK293; Homo sapiens, HEK293, 96 h) [µM] | IC50 (HUVEC; Homo sapiens, HUVEC, 96 h) [µM] | IC50 (HEK293) [µM] | IC50 (HUVEC) [µM]
0.53 | 0.27 | 0.03 | 1.13 | 0.12 | 0.27 | 0.31 |  |  |  |  |  | COc1cc(OC)cc(N2CCN(C(=O)Nc3nc4ccoc4nc3OC)CC2)c1 [Example 1, 4-(3,5-Dimethoxyphenyl)-N-(3-methoxyfuro[2,3-b]pyrazin-2-yl)piperazine-1-carboxamide] | 0.63 | 0.12 |  | 
0.45 | 0.82 | 0.38 | 0.23 | 0.26 | 0.49 | 0.62 |  |  |  |  |  | COc1cc(C)cc(N2CCN(C(=O)Nc3nc4ccoc4nc3OC)CC2)c1 [Example 2, 4-(3-Methoxy-5-methylphenyl)-N-(3-methoxyfuro[2,3-b]pyrazin-2-yl)piperazine-1-carboxamide] | 1.93 | 0.91 |  | 
0.56 | 0.85 | 0.06 | 2.11 | 0.24 | 0.71 | 1.53 |  |  |  |  |  | COc1cc(F)cc(N2CCN(C(=O)Nc3nc4ccoc4nc3OC)CC2)c1 [Example 3, 4-(3-Fluoro-5-methoxyphenyl)-N-(3-methoxyfuro[2,3-b]pyrazin-2-yl)piperazine-1-carboxamide] | < 2.5 | < 2.5 |  | 
0.68 | < 2.5 | 0.54 | < 2.5 | 1.13 | 1.54 | < 2.5 |  |  |  |  |  | COc1cc(OCCN(C)C)cc(N2CCN(C(=O)Nc3nc4ccoc4nc3OC)CC2)c1 [Example 4, 4-(3-(2-(Dimethylamino)ethoxy)-5-methoxyphenyl)-N-(3-methoxyfuro[2,3-b]pyrazin-2-yl)piperazine-1-carboxamide] | < 2.5 | 1.25 |  | 
1.32 | < 2.5 | 1.72 | < 2.5 | 1.12 | 2.35 | < 2.5 |  |  |  |  |  | COc1nc2occc2nc1NC(=O)N1CCN(c2cc(C)cc(C)c2)CC1 [Example 5, 4-(3,5-Dimethylphenyl)-N-(3-methoxyfuro[2,3-b]pyrazin-2-yl)piperazine-1-carboxamide] | < 2.5 | < 2.5 |  | 
0.98 | < 2.5 | 1.21 | 1.78 | 1.13 | 1.98 | < 2.5 |  |  |  |  |  | COc1nc2occc2nc1NC(=O)N1CCN(c2cc(C)cc(F)c2)CC1 [Example 6, 4-(3-Fluoro-5-methylphenyl)-N-(3-methoxyfuro[2,3-b]pyrazin-2-yl)piperazine-1-carboxamide] | 1.83 | < 2.5 |  | 
1.89 | < 2.5 | 1.78 | < 2.5 | 1.78 | < 2.5 | < 2.5 |  |  |  |  |  | COc1nc2occc2nc1NC(=O)N1CCN(c2cc(F)cc(F)c2)CC1 [Example 7, 4-(3,5-difluorophenyl)-N-(3-methoxyfuro[2,3-b]pyrazin-2-yl)piperazine-1-carboxamide] | < 2.5 | < 2.5 |  | 
1.98 | < 2.5 | 0.88 | < 2.5 | 0.98 | < 2.5 | < 2.5 |  |  |  |  |  | COc1nc2occc2nc1NC(=O)N1CCN(c2cc(F)cc(C(F)(F)F)c2)CC1 [Example 8, 4-(3-Fluoro-5-(trifluoromethyl)phenyl)-N-(3-methoxyfuro[2,3-b]pyrazin-2-yl)piperazine-1-carboxamide] | < 2.5 | < 2.5 |  | 
< 2.5 | < 2.5 | < 2.5 | < 2.5 | < 2.5 | < 2.5 | < 2.5 |  |  |  |  |  | COc1nc2occc2nc1NC(=O)N1CCN(c2cc(C(F)(F)F)cc(C(F)(F)F)c2)CC1 [Example 9, 4-(3,5-Bis(trifluoromethyl)phenyl)-N-(3-methoxyfuro[2,3-b]pyrazin-2-yl)piperazine-1-carboxamide] | < 2.5 | < 2.5 |  | 
0.68 | 1.23 | 1.13 | 1.14 | 1.02 | 0.28 | 1.27 |  |  |  |  |  | COc1nc2occc2nc1NC(=O)N1CCN(c2cccc(OC(F)(F)F)c2)CC1 [Example 10, N-(3-Methoxyfuro[2,3-b]pyrazin-2-yl)-4-(3-(trifluoromethoxy)phenyl)piperazine-1-carboxamide] | 0.56 | 1.36 |  | 
0.24 | 1.27 | 0.07 | 1.51 | 0.07 | 0.41 | 1.31 |  |  |  |  |  | CCOc1nc2occc2nc1NC(=O)N1CCN(c2cc(OC)cc(OC)c2)CC1 [Example 11, 4-(3,5-Dimethoxyphenyl)-N-(3-ethoxyfuro[2,3-b]pyrazin-2-yl)piperazine-1-carboxamide] | 0.65 | 0.07 |  | 
0.24 | 1.29 | 0.14 | 1.28 | 0.05 | 0.33 | 1.3 |  |  |  |  |  | CCOc1nc2occc2nc1NC(=O)N1CCN(c2cc(C)cc(OC)c2)CC1 [Example 12, N-(3-Ethoxyfuro[2,3-b]pyrazin-2-yl)-4-(3-methoxy-5-methylphenyl)piperazine-1-carboxamide] | 1.55 | 0.27 |  | 
0.65 | < 2.5 | 0.26 | < 2.5 | 0.16 | 0.72 | < 2.5 |  |  |  |  |  | CCOc1nc2occc2nc1NC(=O)N1CCN(c2cc(F)cc(OC)c2)CC1 [Example 13, N-(3-Ethoxyfuro[2,3-b]pyrazin-2-yl)-4-(3-fluoro-5-methoxyphenyl)piperazine-1-carboxamide] | < 2.5 | < 2.5 |  | 
1.23 | < 2.5 | 0.68 | 1.85 | 0.34 | 0.65 | < 2.5 |  |  |  |  |  | CCOc1nc2occc2nc1NC(=O)N1CCN(c2cc(OC)cc(OCCN(C)C)c2)CC1 [Example 14, 4-(3-(2-(Dimethylamino)ethoxy)-5-methoxyphenyl)-N-(3-ethoxyfuro[2,3-b]pyrazin-2-yl)piperazine-1-carboxamide] | < 2.5 | < 2.5 |  | 
1.12 | < 2.5 | 0.25 | < 2.5 | 0.24 | 0.78 | < 2.5 |  |  |  |  |  | CCOc1nc2occc2nc1NC(=O)N1CCN(c2cc(C)cc(C)c2)CC1 [Example 15, 4-(3,5-Dimethylphenyl)-N-(3-ethoxyfuro[2,3-b]pyrazin-2-yl)piperazine-1-carboxamide] | < 2.5 | < 2.5 |  | 
 | 2.13 | 0.32 |  | 0.21 | 0.68 | 1.59 | < 2.5 | 0.36 | 0.12 | 0.57 | < 2.5 | COc1cc(F)cc(N2CCN(C(=O)Nc3nc4cc(Cl)oc4nc3OC)CC2)c1 [Example 43, N-(6-Chloro-3-methoxyfuro[2,3-b]pyrazin-2-yl)-4-(3-fluoro-5-methoxyphenyl)piperazine-1-carboxamide] | 1.32 | 1.77 | < 2.5 | < 2.5

Source: patent US10800788B2, “4-(aryl)-N-(3-alkoxyfuro[2,3-b]pyrazin-2-yl)-piperazine-1-carboxamide derivative and antiproliferative effect thereof” (Dongguk University Industry-Academic Cooperation Foundation, priority 2016, dated 2020)
